For eleven molecules, Activity, activity and Km results are on record in ChEMBL document CHEMBL2074414, “Molecular and functional characterization of organic cation/carnitine transporter family in mice” (J Biol Chem, 2000).

Series [1] addresses T1, Solute carrier family 22 member 21 (Mus musculus) (UniProt Q9WTN6).
T1 sequence (whole entry): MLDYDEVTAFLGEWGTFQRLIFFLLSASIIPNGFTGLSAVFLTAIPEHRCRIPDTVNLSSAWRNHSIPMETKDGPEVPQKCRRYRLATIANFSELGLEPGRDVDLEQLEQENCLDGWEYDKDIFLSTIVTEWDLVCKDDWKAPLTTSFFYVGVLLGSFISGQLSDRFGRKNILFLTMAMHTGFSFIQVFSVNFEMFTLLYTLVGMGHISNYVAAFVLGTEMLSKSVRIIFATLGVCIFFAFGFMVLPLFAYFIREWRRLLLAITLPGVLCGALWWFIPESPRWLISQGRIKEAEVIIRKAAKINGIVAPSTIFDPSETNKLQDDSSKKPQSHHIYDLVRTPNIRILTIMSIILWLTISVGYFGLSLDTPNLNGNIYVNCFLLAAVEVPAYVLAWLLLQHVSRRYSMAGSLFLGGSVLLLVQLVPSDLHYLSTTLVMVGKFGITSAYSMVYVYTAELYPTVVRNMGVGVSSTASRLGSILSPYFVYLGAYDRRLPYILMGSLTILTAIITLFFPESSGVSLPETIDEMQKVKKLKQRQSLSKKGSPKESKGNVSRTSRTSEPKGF
Nature of the series: TP_TRANSPORTER: inhibition of carnitine transport by gamma-butyrobetaine at 5uM in Octn3-HEK cells. The class given is functional, cell-based. On the set-up: scale not given: the % may be the effect or the level left. The settings on record: HEK293.

Series [2] has as its target T2, Octn2 (Organic cation/carnitine transporter 2) (Mus musculus, UniProt Q9Z0E8).
T2 sequence (Q9Z0E8 whole entry): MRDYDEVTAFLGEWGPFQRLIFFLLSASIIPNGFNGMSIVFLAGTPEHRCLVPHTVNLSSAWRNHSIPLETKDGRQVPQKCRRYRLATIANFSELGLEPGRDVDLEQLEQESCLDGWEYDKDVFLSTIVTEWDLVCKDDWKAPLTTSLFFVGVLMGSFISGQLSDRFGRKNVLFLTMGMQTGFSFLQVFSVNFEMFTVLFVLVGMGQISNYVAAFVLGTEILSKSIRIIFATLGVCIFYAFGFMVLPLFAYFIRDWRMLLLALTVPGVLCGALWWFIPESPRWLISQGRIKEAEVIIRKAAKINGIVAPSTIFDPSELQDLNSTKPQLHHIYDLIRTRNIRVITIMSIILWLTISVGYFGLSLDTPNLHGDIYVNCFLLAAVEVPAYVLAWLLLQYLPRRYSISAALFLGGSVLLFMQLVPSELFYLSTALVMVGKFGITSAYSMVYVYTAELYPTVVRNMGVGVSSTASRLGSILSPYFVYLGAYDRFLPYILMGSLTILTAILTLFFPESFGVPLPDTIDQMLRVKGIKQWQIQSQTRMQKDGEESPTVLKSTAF
Nature of the series: TP_TRANSPORTER: inhibition of carnitine uptake by gamma-butyrobetaine at 5uM in Octn2-HEK cells. It counts as functional, cell-based, HEK293. Set-up: scale not given: the % may be the effect or the level left. The conditions noted are these: human, probe carnitine, read-out: Activity.

The target in series [3] is T1, Solute carrier family 22 member 21 (Mus musculus). Nature of the series: TP_TRANSPORTER: inhibition of carnitine uptake by Acetyl-L-carnitine at 5uM in Octn3-HEK cells. It counts as functional, cell-based. Set-up: scale not given: the % may be the effect or the level left. The settings on record: HEK293.
Series [4] has as its target T3, Organic cation/carnitine transporter 2 (Mus musculus, UniProt Q9Z0E8).
T3 sequence (Q9Z0E8 whole entry): T2 sequence (Q9Z0E8 whole entry)
Nature of the series: TP_TRANSPORTER: inhibition of carnitine uptake by Acetyl-L-carnitine at 5uM in Octn2-HEK cells. It counts as functional, cell-based. On the set-up: scale not given: the % may be the effect or the level left. The settings on record: human, hek293, 5 µM.

The target in series [5] is T1, Solute carrier family 22 member 21 (Mus musculus). In words: TP_TRANSPORTER: inhibition of carnitine uptake by Glycine betaine at 500uM in Octn3-HEK cells. It counts as functional, cell-based. The settings on record: HEK293. On the set-up: scale not given: the % may be the effect or the level left.
Series [6] has as its target T3, Organic cation/carnitine transporter 2. Nature of the series: TP_TRANSPORTER: inhibition of carnitine uptake by Glycine betaine at […] in Octn2-HEK cells. It counts as functional, cell-based. Set-up: scale not given: the % may be the effect or the level left. The settings on record: human, hek293.
Series [7] addresses T1, Solute carrier family 22 member 21 (Mus musculus). In words: TP_TRANSPORTER: inhibition of carnitine transport by Butyryl-carnitine at 5uM in Octn3-HEK cells. The class given is functional, cell-based. On the set-up: scale not given: the % may be the effect or the level left. The conditions noted are these: HEK293.
Series [8] has as its target T3, Organic cation/carnitine transporter 2. Nature of the series: TP_TRANSPORTER: inhibition of carnitine uptake by Butyryl-carnitine at 5uM in Octn2-HEK cells. It counts as functional, cell-based. On the set-up: scale not given: the % may be the effect or the level left. The settings on record: human, hek293, 5 µM.
The target of series [9] is T4, Solute carrier family 22 member 4 (Mus musculus, UniProt Q9Z306).
T4 sequence (Q9Z306 whole entry): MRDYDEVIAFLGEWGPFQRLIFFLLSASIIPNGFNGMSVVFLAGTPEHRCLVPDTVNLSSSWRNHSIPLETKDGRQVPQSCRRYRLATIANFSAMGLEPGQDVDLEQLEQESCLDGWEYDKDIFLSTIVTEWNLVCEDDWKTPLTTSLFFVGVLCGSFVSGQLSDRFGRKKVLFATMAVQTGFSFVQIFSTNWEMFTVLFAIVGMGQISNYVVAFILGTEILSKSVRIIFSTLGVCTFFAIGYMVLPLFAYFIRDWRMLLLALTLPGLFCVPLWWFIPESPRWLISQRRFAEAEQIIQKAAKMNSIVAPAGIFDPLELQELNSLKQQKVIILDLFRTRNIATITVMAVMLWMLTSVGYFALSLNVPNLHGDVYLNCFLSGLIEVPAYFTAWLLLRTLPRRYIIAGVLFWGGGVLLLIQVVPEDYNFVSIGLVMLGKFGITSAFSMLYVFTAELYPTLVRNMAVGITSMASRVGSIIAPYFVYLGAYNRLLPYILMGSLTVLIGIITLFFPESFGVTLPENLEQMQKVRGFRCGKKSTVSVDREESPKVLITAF
In words: TP_TRANSPORTER: uptake in Octn1-HEK cells. The class given is functional, cell-based. The settings on record: human, hek293.

The target in series [10] is T2, Octn2 (Organic cation/carnitine transporter 2). In words: in vitro. The conditions noted are these: human, Octn2-HEK cells, probe carnitine.
Series [11] has as its target T1, Solute carrier family 22 member 21 (Mus musculus). Nature of the series: TP_TRANSPORTER: inhibition of carnitine uptake by Octanoyl-carnitine at 5uM in Octn3-HEK cells. The settings on record: HEK293. On the set-up: scale not given: the % may be the effect or the level left. It counts as functional, cell-based.
For series [12], the target named is T2, Octn2 (Organic cation/carnitine transporter 2). Nature of the series: TP_TRANSPORTER: inhibition of carnitine uptake by Octanoyl-carnitine at 5uM in Octn2-HEK cells. The class given is functional, cell-based, HEK293. On the set-up: scale not given: the % may be the effect or the level left. The settings on record: human, probe carnitine, read-out: Activity.

Series [13] deals with T1, Solute carrier family 22 member 21 (Mus musculus). In words: TP_TRANSPORTER: inhibition of carnitine in Octn3-HEK cells. The settings on record: HEK293. It counts as functional, cell-based.
For series [14], the target named is T2, Octn2 (Organic cation/carnitine transporter 2). Nature of the series: TP_TRANSPORTER: inhibition of carnitine transport by Palmitoyl-carnitine at 5uM in Octn2-HEK cells. Set-up: scale not given: the % may be the effect or the level left. The conditions noted are these: human, probe carnitine, read-out: Activity. The class given is functional, cell-based, HEK293.

Substrate in series [15]: C[N+](C)(C)CC(O)CC(=O)[O-]
Nature of the series: TP_TRANSPORTER: uptake in Octn3-HEK cells. The class given is functional, cell-based. The settings on record: HEK293.

Substrate in series [16]: C[N+](C)(C)CC(O)CC(=O)[O-]
Nature of the series: TP_TRANSPORTER: uptake in Octn2-HEK cells. The class given is functional, cell-based, HEK293.

Substrate in series [17]: CC[N+](CC)(CC)CC
Nature of the series: cells, lysate or membranes named.

The Km is the concentration of substrate that gives half-maximal velocity.

Turning to `C[N+](C)(C)CCCC(=O)[O-]`, the Activity in [1] is 11%. For the same molecule, the activity at 5 µM in series [2] was 77%. In the case of `CC(=O)O[C@H](CC(=O)[O-])C[N+](C)(C)C` [ACETYLCARNITINE], the Activity in [3] was 21%; in series [4] it was 67%. As to `C[N+](C)(C)CC(=O)O` [BETAINE], the figures for the Activity in [5] and in series [6] were 84% and 56%, respectively. For `CCCC(=O)OC(CC(=O)[O-])C[N+](C)(C)C` (stereo not drawn) [Butyryl-carnitine], the results for the Activity in series [7] and in [8] were 13% and 66%, respectively. For the molecule `C[N+](C)(C)CC(O)CC(=O)[O-]` (stereo not drawn) [CARNITINE], the Activity result in [9] was “substrate []”. Turning to `C[N+](C)(C)CCO` [CHOLINE], in [10], the activity at 500 µM turned out to be 75%. For `CCCCCCCC(=O)OC(CC(=O)O)C[N+](C)(C)C` (stereo not drawn) [Octanoyl-carnitine], in series [11], the Activity is 15%. For the same molecule, the activity at 5 µM in series [12] is 38%.

As to `CCCCCCCCCCCCCCCC(=O)OC(CC(=O)[O-])C[N+](C)(C)C` (stereo not drawn) [Palmitoyl-carnitine], the Activity in series [13] was 54 µM. Besides, the activity at 5 µM in [14] is 28%.

B1: Solute carrier family 22 member 21 (Mus musculus), Q9WTN6 (protein)
chain: T1 sequence (whole entry)
With B1, in [15], the Km stood at 3 µM.

B2: Organic cation/carnitine transporter 2 (Mus musculus) (protein)
chain: T2 sequence (Q9Z0E8 whole entry)
As for B2, the Km in series [16] was 22 µM; in [17], 216 µM.

B3: Solute carrier family 22 member 4 (Mus musculus) (protein)
chain: T4 sequence (Q9Z306 whole entry)
For B3, the Km in series [17] amounted to 452 µM.
